Source: US10501434B2, “Configurational stereoisomer of difethialone, composition and rodenticidal bait comprising same, and process for controlling target rodent pests” (priority 2015, dated 2019)

Assay type: in vivo, rat
Conditions: liver of rats which died between D9 and D10 after consuming the 11.8 ppm bait
Description: The acetonitrile solution containing difethialone is analysed by high-pressure liquid chromatography on a LUX® Cellulose-3 chiral column (Phenomenex, Le Pecq, France) (150×2 mm, particle size of 3 μm) as described in point A2) above.
The values, expressed as micrograms of laevorotatory enantiomer of said hetero-stereoisomer (“DFN-Hetero-laevo”) per gram of liver, are given in table 3 below.

With `O=c1sc2ccccc2c(O)c1C1CC(c2ccc(-c3ccc(Br)cc3)cc2)Cc2ccccc21` (stereo not shown) [Total difethialone, 3-(4′-bromobiphenyl-4-yl)-1-(4-hydroxythiocoumarin-3-yl)-1,2,3,4-tetrahydronaphthalene] the “Hepatic content, Mean” value was 11.3 µg/g.
